{"source": "patent US4797280A", "about": "“Antibiotics produced by Kibdelosporangium aridum Shearer gen. nov., sp. nov. ATCC 39323” (SmithKline Beckman Corporation, priority 1986, dated 1989)", "key": {"[1]": {"system": "Kibdelosporangium aridum", "assay": "Susceptibility of K. aridum to antibiotics, disk diffusion", "format": "cell-based", "settings": "28° C., one week", "description": "Susceptibility of K. aridum to antibiotics was examined by placing BBL susceptibility disks on nutrient agar plates seeded with K. aridum as an overlay. Diameters of the zones of inhibition were measured after incubation for one week at 28° C.\nSusceptibility to Antibiotics. […] Chlortetracycline ([…]) produced 18 mm zones of inhibition; tetracycline (5 μg) 11-12 mm zones; rifampin (5 μg) 11-15 mm zones; novobiocin (5 μg) 27-28 mm zones. All zones of inhibition contained at least a few resistant colonies."}, "[2]": {"system": "rumen fluid from dairy cows", "assay": "Rumen in vitro experiment with dairy cow rumen fluid", "settings": "about 23 hours", "description": "A similar experiment was carried out using rumen fluid from dairy cows fed a typical dairy cow diet of two parts corn silage and three parts dairy concentrate. Specifically, strained rumen fluid (10 ml) was obtained, from an animal fed two hours earlier, via cannula and was mixed with 10 ml of a nutrient broth comprising a 2:3 mix of corn silage and dairy concentrate. After adding a selected growth promotant, the mixture was incubated at 39° C. for about 23 hours, with oscillation."}}, "note": "Where a SMILES comes first, the peptide text is derived from it. Bridges are numbered along the chain shown (N, C = ends). [ ]: non-standard residue; d: D form. The star is where a group is joined. Ileψ(thiazoline)Cys = CC[C@H](C)[C@H](N)C1=N[C@H](C(=O)*)CS1; dOrn = NCCC[C@@H](N)C(=O)O", "data": [{"compound": "CC[C@H](C)[C@H](N)C1=N[C@H](C(=O)N[C@@H](CC(C)C)C(=O)N[C@H](CCC(=O)O)C(=O)N[C@H](C(=O)N[C@H]2CCCCNC(=O)[C@H](CC(N)=O)NC(=O)[C@@H](CC(=O)O)NC(=O)[C@H](Cc3cnc[nH]3)NC(=O)[C@@H](Cc3ccccc3)NC(=O)[C@H]([C@@H](C)CC)NC(=O)[C@@H](CCCN)NC2=O)[C@@H](C)CC)CS1", "note": "[bacitracin] ({Ileψ(thiazoline)Cys}-L[dE]IK[dOrn]I[dF]H[dD]N; lactam 4-C)", "values": [{"measurement": "Susceptibility of K. aridum", "setting": "[1]; disk 2 units", "result": "resistant"}]}, {"compound": "CC(=O)OCC1=C(C(=O)O)N2C(=O)[C@@H](NC(=O)Cc3cccs3)[C@H]2SC1", "note": "[cephalothin]", "values": [{"measurement": "Susceptibility of K. aridum", "setting": "[1]; disk 30 μg", "result": "resistant"}]}, {"compound": "Avoparcin", "values": [{"measurement": "% PR", "setting": "[2]; 0.5 ppm", "result": 101, "unit": "% OF CONTROL"}, {"measurement": "ACE", "setting": "[2]; 0.5 ppm", "result": 100, "unit": "% OF CONTROL"}, {"measurement": "AMO", "setting": "[2]; 0.5 ppm", "result": 79, "unit": "% OF CONTROL"}, {"measurement": "BUT", "setting": "[2]; 0.5 ppm", "result": 100, "unit": "% OF CONTROL"}, {"measurement": "DLAC", "setting": "[2]; 0.5 ppm", "result": 0, "unit": "% OF CONTROL"}, {"measurement": "ETOH", "setting": "[2]; 0.5 ppm", "result": 0, "unit": "% OF CONTROL"}, {"measurement": "GLU", "setting": "[2]; 0.5 ppm", "result": 0, "unit": "% OF CONTROL"}, {"measurement": "IBU", "setting": "[2]; 0.5 ppm", "result": 122, "unit": "% OF CONTROL"}, {"measurement": "IVA", "setting": "[2]; 0.5 ppm", "result": 101, "unit": "% OF CONTROL"}, {"measurement": "LLAC", "setting": "[2]; 0.5 ppm", "result": 0, "unit": "% OF CONTROL"}, {"measurement": "LYS", "setting": "[2]; 0.5 ppm", "result": 91, "unit": "% OF CONTROL"}, {"measurement": "NH--N", "setting": "[2]; 0.5 ppm", "result": 92, "unit": "% OF CONTROL"}, {"measurement": "PRO", "setting": "[2]; 0.5 ppm", "result": 102, "unit": "% OF CONTROL"}, {"measurement": "TOTAL", "setting": "[2]; 0.5 ppm", "result": 1200, "unit": "% OF CONTROL"}, {"measurement": "VAL", "setting": "[2]; 0.5 ppm", "result": 97, "unit": "% OF CONTROL"}, {"measurement": "% PR", "setting": "[2]; 5 ppm", "result": 113, "unit": "% OF CONTROL"}, {"measurement": "ACE", "setting": "[2]; 5 ppm", "result": 94, "unit": "% OF CONTROL"}, {"measurement": "AMO", "setting": "[2]; 5 ppm", "result": 107, "unit": "% OF CONTROL"}, {"measurement": "BUT", "setting": "[2]; 5 ppm", "result": 91, "unit": "% OF CONTROL"}, {"measurement": "DLAC", "setting": "[2]; 5 ppm", "result": 0, "unit": "% OF CONTROL"}, {"measurement": "ETOH", "setting": "[2]; 5 ppm", "result": 0, "unit": "% OF CONTROL"}, {"measurement": "GLU", "setting": "[2]; 5 ppm", "result": 0, "unit": "% OF CONTROL"}, {"measurement": "IBU", "setting": "[2]; 5 ppm", "result": 146, "unit": "% OF CONTROL"}, {"measurement": "IVA", "setting": "[2]; 5 ppm", "result": 115, "unit": "% OF CONTROL"}, {"measurement": "LLAC", "setting": "[2]; 5 ppm", "result": 0, "unit": "% OF CONTROL"}, {"measurement": "LYS", "setting": "[2]; 5 ppm", "result": 92, "unit": "% OF CONTROL"}, {"measurement": "NH--N", "setting": "[2]; 5 ppm", "result": 122, "unit": "% OF CONTROL"}, {"measurement": "PRO", "setting": "[2]; 5 ppm", "result": 112, "unit": "% OF CONTROL"}, {"measurement": "TOTAL", "setting": "[2]; 5 ppm", "result": 99, "unit": "% OF CONTROL"}, {"measurement": "VAL", "setting": "[2]; 5 ppm", "result": 103, "unit": "% OF CONTROL"}, {"measurement": "% PR", "setting": "[2]; 50 ppm", "result": 128, "unit": "% OF CONTROL"}, {"measurement": "ACE", "setting": "[2]; 50 ppm", "result": 108, "unit": "% OF CONTROL"}, {"measurement": "AMO", "setting": "[2]; 50 ppm", "result": 123, "unit": "% OF CONTROL"}, {"measurement": "BUT", "setting": "[2]; 50 ppm", "result": 88, "unit": "% OF CONTROL"}, {"measurement": "DLAC", "setting": "[2]; 50 ppm", "result": 0, "unit": "% OF CONTROL"}, {"measurement": "ETOH", "setting": "[2]; 50 ppm", "result": 0, "unit": "% OF CONTROL"}, {"measurement": "GLU", "setting": "[2]; 50 ppm", "result": 0, "unit": "% OF CONTROL"}, {"measurement": "IBU", "setting": "[2]; 50 ppm", "result": 116, "unit": "% OF CONTROL"}, {"measurement": "IVA", "setting": "[2]; 50 ppm", "result": 104, "unit": "% OF CONTROL"}, {"measurement": "LLAC", "setting": "[2]; 50 ppm", "result": 0, "unit": "% OF CONTROL"}, {"measurement": "LYS", "setting": "[2]; 50 ppm", "result": 88, "unit": "% OF CONTROL"}, {"measurement": "NH--N", "setting": "[2]; 50 ppm", "result": 148, "unit": "% OF CONTROL"}, {"measurement": "PRO", "setting": "[2]; 50 ppm", "result": 137, "unit": "% OF CONTROL"}, {"measurement": "TOTAL", "setting": "[2]; 50 ppm", "result": 107, "unit": "% OF CONTROL"}, {"measurement": "VAL", "setting": "[2]; 50 ppm", "result": 99, "unit": "% OF CONTROL"}]}, {"compound": "Saloinomycin", "values": [{"measurement": "% PR", "setting": "[2]; 0.5 ppm", "result": 126, "unit": "% OF CONTROL"}, {"measurement": "ACE", "setting": "[2]; 0.5 ppm", "result": 95, "unit": "% OF CONTROL"}, {"measurement": "AMO", "setting": "[2]; 0.5 ppm", "result": 117, "unit": "% OF CONTROL"}, {"measurement": "BUT", "setting": "[2]; 0.5 ppm", "result": 83, "unit": "% OF CONTROL"}, {"measurement": "DLAC", "setting": "[2]; 0.5 ppm", "result": 0, "unit": "% OF CONTROL"}, {"measurement": "ETOH", "setting": "[2]; 0.5 ppm", "result": 0, "unit": "% OF CONTROL"}, {"measurement": "GLU", "setting": "[2]; 0.5 ppm", "result": 0, "unit": "% OF CONTROL"}, {"measurement": "IBU", "setting": "[2]; 0.5 ppm", "result": 153, "unit": "% OF CONTROL"}, {"measurement": "IVA", "setting": "[2]; 0.5 ppm", "result": 110, "unit": "% OF CONTROL"}, {"measurement": "LLAC", "setting": "[2]; 0.5 ppm", "result": 0, "unit": "% OF CONTROL"}, {"measurement": "LYS", "setting": "[2]; 0.5 ppm", "result": 119, "unit": "% OF CONTROL"}, {"measurement": "NH--N", "setting": "[2]; 0.5 ppm", "result": 136, "unit": "% OF CONTROL"}, {"measurement": "PRO", "setting": "[2]; 0.5 ppm", "result": 124, "unit": "% OF CONTROL"}, {"measurement": "TOTAL", "setting": "[2]; 0.5 ppm", "result": 99, "unit": "% OF CONTROL"}, {"measurement": "VAL", "setting": "[2]; 0.5 ppm", "result": 94, "unit": "% OF CONTROL"}, {"measurement": "% PR", "setting": "[2]; 5 ppm", "result": 152, "unit": "% OF CONTROL"}, {"measurement": "ACE", "setting": "[2]; 5 ppm", "result": 99, "unit": "% OF CONTROL"}, {"measurement": "AMO", "setting": "[2]; 5 ppm", "result": 226, "unit": "% OF CONTROL"}, {"measurement": "BUT", "setting": "[2]; 5 ppm", "result": 66, "unit": "% OF CONTROL"}, {"measurement": "DLAC", "setting": "[2]; 5 ppm", "result": 0, "unit": "% OF CONTROL"}, {"measurement": "ETOH", "setting": "[2]; 5 ppm", "result": 0, "unit": "% OF CONTROL"}, {"measurement": "GLU", "setting": "[2]; 5 ppm", "result": 0, "unit": "% OF CONTROL"}, {"measurement": "IBU", "setting": "[2]; 5 ppm", "result": 108, "unit": "% OF CONTROL"}, {"measurement": "IVA", "setting": "[2]; 5 ppm", "result": 75, "unit": "% OF CONTROL"}, {"measurement": "LLAC", "setting": "[2]; 5 ppm", "result": 0, "unit": "% OF CONTROL"}, {"measurement": "LYS", "setting": "[2]; 5 ppm", "result": 117, "unit": "% OF CONTROL"}, {"measurement": "NH--N", "setting": "[2]; 5 ppm", "result": 116, "unit": "% OF CONTROL"}, {"measurement": "PRO", "setting": "[2]; 5 ppm", "result": 148, "unit": "% OF CONTROL"}, {"measurement": "TOTAL", "setting": "[2]; 5 ppm", "result": 98, "unit": "% OF CONTROL"}, {"measurement": "VAL", "setting": "[2]; 5 ppm", "result": 83, "unit": "% OF CONTROL"}, {"measurement": "% PR", "setting": "[2]; 50 ppm", "result": 188, "unit": "% OF CONTROL"}, {"measurement": "ACE", "setting": "[2]; 50 ppm", "result": 76, "unit": "% OF CONTROL"}, {"measurement": "AMO", "setting": "[2]; 50 ppm", "result": 268, "unit": "% OF CONTROL"}, {"measurement": "BUT", "setting": "[2]; 50 ppm", "result": 63, "unit": "% OF CONTROL"}, {"measurement": "DLAC", "setting": "[2]; 50 ppm", "result": 0, "unit": "% OF CONTROL"}, {"measurement": "ETOH", "setting": "[2]; 50 ppm", "result": 0, "unit": "% OF CONTROL"}, {"measurement": "GLU", "setting": "[2]; 50 ppm", "result": 0, "unit": "% OF CONTROL"}, {"measurement": "IBU", "setting": "[2]; 50 ppm", "result": 61, "unit": "% OF CONTROL"}, {"measurement": "IVA", "setting": "[2]; 50 ppm", "result": 46, "unit": "% OF CONTROL"}, {"measurement": "LLAC", "setting": "[2]; 50 ppm", "result": 0, "unit": "% OF CONTROL"}, {"measurement": "LYS", "setting": "[2]; 50 ppm", "result": 114, "unit": "% OF CONTROL"}, {"measurement": "NH--N", "setting": "[2]; 50 ppm", "result": 82, "unit": "% OF CONTROL"}, {"measurement": "PRO", "setting": "[2]; 50 ppm", "result": 168, "unit": "% OF CONTROL"}, {"measurement": "TOTAL", "setting": "[2]; 50 ppm", "result": 89, "unit": "% OF CONTROL"}, {"measurement": "VAL", "setting": "[2]; 50 ppm", "result": 60, "unit": "% OF CONTROL"}]}]}
